From publication PMC6225302, “Depsidone Derivatives and a Cyclopeptide Produced by Marine Fungus Aspergillus unguis under Chemical Induction and by Its Plasma Induced Mutant” (Molecules : A Journal of Synthetic Chemistry and Natural …, 2018)

System: brine shrimp (Artemia salina) larva
Experiment: Brine shrimp larva lethality test
Format: in vivo
Conditions: brine shrimp larvae, 24 h at 28 °C; read-out: Larvicidal Activity (LC50)
Procedure: Compounds 1‒10 were evaluated for larvicidality using the brine shrimp (Artemia salina) larva lethality test. 0.15 g of frozen eggs of brine shrimp larva (purchased from Aijia Aquarium Co., Zhanjiang, China) were activated at room temperature for 12 h. After activation, eggs were added to 1 L of artificial seawater (3% sea salt), ventilated with air for 420 mL/min, then kept at a brightness at 1000 lux and incubated at 28 °C for 24 h. After incubation, the larvae were induced to the top of the separating funnel by phototaxis, and the dead ones on bottom were discharged. Then, in each well of the 96-well plate, 1 μL of test compounds (in DMSO) with different concentrations and 99 μL of seawater containing 20‒30 live larvae were added. After incubation under light at 28 °C for 24 h, recorded the numbers of dead larvae. Finally, 10 μL of the Lucus reagent were added into each well and the total number of brine shrimp larva in the well were counted. DMSO and Hg(NO3)2 were used as blank control and positive control, respectively. Lethality rate (%)=(lethality of treatment−lethality of blank control)/survival rate of blank control×100%
The brine shrimp larva LC50 value is the concentration required to kill 50% of the larvae. Likewise, the LC50 was calculated using Origin 8.0 plotting and cubic polynomial regression.

O=[N+]([O-])[O-].O=[N+]([O-])[O-].[Hg+2] [Hg(NO3)2, reference compound]
LC50: 77 µM
